The test system of data set [1] is Raji cells (Burkitt lymphoma). The format is cell-based, human.
Data set [2] has as its target Shiga toxin 2 (Escherichia phage 933W, UniProt P09385). The data set can be described thus: biochemical. The format is binding.
Data set [3] deals with T1, binding of Shiga toxin 2 to human neutrophils expressing the TLR4 (Escherichia phage 933W, UniProt P09385). The experiment in a line: cell-based. The format is cell-based.
The test system of data set [4] is neutrophil/platelet aggregates in human blood. In kind it is cell-based.
Data set [5] relates to monocyte/platelet aggregates in human blood. The format is cell-based.
Data set [6] has as its system Raji cells (Burkitt lymphoma). The conditions noted are these: cited from earlier work.
Data set [7] addresses T1, binding of Shiga toxin 2 to human neutrophils expressing the TLR4. The conditions noted are these: cited from earlier work.
Data set [8] relates to human renal tubule cells. The conditions noted are these: cited from earlier work.

Where a SMILES comes first, the peptide text is derived from it. Bridges are numbered along the chain shown (N, C = ends). [ ]: non-standard residue; d: D form. The star is where a group is joined. Octanoyl = CCCCCCCC(=O)*; Dab = NCC[C@H](N)C(=O)O; Abu = CC[C@H](N)C(=O)O

T1 sequence (P09385 whole entry, looked up): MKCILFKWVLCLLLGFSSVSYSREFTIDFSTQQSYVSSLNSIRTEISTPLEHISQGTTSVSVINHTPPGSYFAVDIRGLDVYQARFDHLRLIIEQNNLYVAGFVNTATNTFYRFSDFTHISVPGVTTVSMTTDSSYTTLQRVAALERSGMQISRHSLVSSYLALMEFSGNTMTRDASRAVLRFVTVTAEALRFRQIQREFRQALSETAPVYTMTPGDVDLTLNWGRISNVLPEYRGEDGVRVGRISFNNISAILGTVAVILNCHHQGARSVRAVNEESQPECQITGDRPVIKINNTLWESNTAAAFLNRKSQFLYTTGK
Sequence of Shiga toxin 2 (P09385 whole entry, looked up): as above

Turning to `CCCCCCCC(=O)N[C@@H](CCN)C(=O)N[C@H](C(=O)N[C@@H](C(=O)N[C@H]1CCNC(=O)[C@H]([C@@H](C)O)NC(=O)[C@H](CCN)NC(=O)[C@H](CC)NC(=O)[C@H](CC(C)C)NC(=O)[C@@H](Cc2ccccc2)NC(=O)[C@H](CCN)NC1=O)[C@H](C)O)[C@@H](C)O` [NAB815, OA-Dab-Thr-DThr-cy[Dab-Dab-DPhe-Leu-Abu-Dab-Thr-]] (Octanoyl-[Dab]T[dT][Dab][Dab][dF]L[Abu][Dab]T; lactam 4-C), the “protection of Raji cells from Shiga toxin 2 intoxication (protein synthesis)” value in data set [1] was “no protective effect”. Moreover, in data set [2], the Kd (in general, a measure of binding affinity in units of concentration) turned out to be 5 nM and the “maximum reduction of the fluorescence emission” value was “approximately 10%”. For the same molecule, in data set [3], the “inhibition of the binding of Shiga toxin 2 to the neutrophil (in words)” value (from here on “inhibition of the binding … (in words)”) was “strong inhibitor”. Further, the IC50 (commonly the concentration needed to halve the response being measured) in data set [3] (IC50 (concentration determining a 50% inhibition) of binding of Shiga toxin 2 to neutrophils) is 48.5 nM. The molecule also came in with an IC50 in data set [3] (concentration inhibiting binding of Shiga toxin 2 to neutrophils by 50%) of 43 nM. Also, the “inhibition of formation of neutrophil/platelet aggregates” value in data set [4] is “more than 70%”. Moreover, the “inhibition of formation of monocyte/platelet aggregates” value in data set [5] is reported as “more than 70%”.

For the molecule “Ac-Thr-DSer-cy[Dab-Dab-DPhe-Leu-Dab-Dab-Thr-] [NAB741, reference compound]”, the “inhibition of the binding … (in words)” value in data set [3] is on record as “scarcely effective”.

With “MOA/MHA-Dab-Thr-Dab-cy[Dab-Dab-DPhe-Leu-Dab-Dab-Thr-] [polymyxin B]”, the “protection of Raji cells from Shiga toxin 2 intoxication” value in data set [6] was “no protective effect”. Also, the “IC50 of binding of Shiga toxin 2 to neutrophils” value in data set [7] was 3.5 µg/mL. Also, the “effect on formation of neutrophil/platelet aggregates (in words)” value in data set [4] was “not effective”. In data set [8], the “cytotoxicity IC50” value is 18 µg/mL. In addition, the “effect on formation of monocyte/platelet aggregates (in words)” value in data set [5] is given as “not effective”.

In the case of “OA-Thr-Abu-cy[Dab-Dab-DPhe-Leu-Dab-Dab-Thr-] [NAB7061, reference compound]”, the “inhibition of the binding … (in words)” value in data set [3] is given as “scarcely effective”.

The values are drawn from US12472225B2 (priority 2019, dated 2025).
